From US7923441B2, “Enhancement of activity and/or duration of action of soft anti-inflammatory steroids for topical or other local application” (priority 2003, dated 2011)

Tests used:
[1] = tested on: forearm of a human volunteer; test: Human vasoconstriction (blanching) testing; format: in vivo; settings: for effect on the vasoconstrictor activity of loteprednol etabonate: co-applied, 1:5 molar ratio loteprednol etabonate:enhancer, especially at the lower concentrations; for AUC (sum of the individual vasoconstriction scores through 36 hours): compound alone; for vasoconstriction activity: tested alone
Description: Test compounds at varying mM concentrations as noted below were dissolved in ethanol/propylene glycol (9/1) solution, and 20 μL of the mixtures were applied to filter paper discs, 0.7 cm in diameter. After ethanol evaporation, each disc was attached to waterproof adhesive tape, then applied to the forearm of a human volunteer and left in place for 4 hours. Groups of 8 forearms were tested at each concentration. The intensity of vasoconstriction was judged at 2, 4, 6, 8, 10, 12, 18, 24 and 36 hours after removal of the discs.
The grading scale for the vasoconstriction activity was as follows: 0, normal skin; 1, slight pallor of indistinct outline; 2, pallor with at least two corners outlined; 3, even pallor with a clear outline of the application sites; 4, very intense pallor. The scores were totaled at each concentration at each time after removal to give a total score at each time interval and an overall total for each concentration. The higher the total score, the greater the blanching or anti-inflammatory effect.

[2] = tested on: forearms of human volunteers; test: Further human vasoconstriction testing; format: in vivo; settings: for effect on the vasoconstriction activity of BEM-17V: BEM-17V 0.1 mM; for effect on the vasoconstriction activity of BEM-17V / effect on the vasoconstriction activity of LE: enhancer 0.1-0.5 mM; for effect on the vasoconstriction activity of LE: LE 0.1 mM; for synergism with LE: LE:enhancer ratios 1:1, 1:2, 1:3, 1:4 and 1:5; for AUC (sum of the individual vasoconstriction scores through 24 hours): steroid 0.1 mM alone
Description: The resultant LE and BEM-17V solutions were then mixed (1:1) with vehicle only, or with the Δ^1-CA or Δ^1-MeCA solutions, so that LE solutions (0.1 mM) and BEM-17V solutions (0.1 mM) containing various concentrations of Δ^1-CA (0 to 0.5 mM) or Δ^1-MeCA (0 to 0.5 mM) were obtained. The resultant mixtures (20 μl) were loaded onto circular patches (6.5 mm diameter) that were attached to a water impervious adhesive film (3M). After the evaporation of ethanol, the patches and film were applied to the forearms of human volunteers for 4 hours. […] The grading scale was as follows: 0, normal skin; 1, slight pallor; 2, pallor with at least two corners outlined; 3, even pallor with a clear outline of the application sites; 4, very intense pallor. […] As before, an overall total for each concentration was then obtained.

receptor = molecular target: T1, receptor (Rattus norvegicus, UniProt P06536); settings: medium containing 10^−5M cortienic acid as competitor; cited from earlier work
T1 sequence (P06536 1-795): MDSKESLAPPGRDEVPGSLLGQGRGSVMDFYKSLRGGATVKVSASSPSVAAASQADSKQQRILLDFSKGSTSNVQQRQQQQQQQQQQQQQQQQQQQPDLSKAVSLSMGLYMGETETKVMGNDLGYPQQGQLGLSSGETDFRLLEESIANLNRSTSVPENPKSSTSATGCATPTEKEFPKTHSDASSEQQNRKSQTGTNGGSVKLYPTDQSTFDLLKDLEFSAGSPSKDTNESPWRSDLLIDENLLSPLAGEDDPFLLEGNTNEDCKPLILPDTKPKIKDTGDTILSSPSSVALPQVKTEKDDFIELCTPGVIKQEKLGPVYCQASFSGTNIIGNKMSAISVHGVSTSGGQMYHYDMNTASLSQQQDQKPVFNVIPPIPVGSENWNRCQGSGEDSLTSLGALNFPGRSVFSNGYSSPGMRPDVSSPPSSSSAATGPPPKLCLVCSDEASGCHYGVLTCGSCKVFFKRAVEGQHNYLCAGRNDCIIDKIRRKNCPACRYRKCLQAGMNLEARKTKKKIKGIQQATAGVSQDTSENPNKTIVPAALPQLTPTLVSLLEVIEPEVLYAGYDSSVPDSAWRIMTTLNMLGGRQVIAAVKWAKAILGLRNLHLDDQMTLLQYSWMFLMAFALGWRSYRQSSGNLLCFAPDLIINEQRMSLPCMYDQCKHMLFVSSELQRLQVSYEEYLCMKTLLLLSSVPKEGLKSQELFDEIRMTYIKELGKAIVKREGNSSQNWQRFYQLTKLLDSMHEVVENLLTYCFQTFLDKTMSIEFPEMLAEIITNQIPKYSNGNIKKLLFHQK

[3] = control (0 mM) of the Δ^1-CA series
[4] = control (0 mM) of the Δ^1-MeCA series

For `COC(=O)[C@@]1(O)CCC2C3CCC4=CC(=O)C=CC4(C)C3C(O)CC21C` (stereo partly drawn) [Δ^1-Cortienic Acid Methyl Ester, methyl 11β,17α-dihydroxyandrosta-1,4-dien-3-one-17β-carboxylate], the “effect on the vasoconstrictor activity of loteprednol etabonate” value [1] was “significantly enhanced”, the “AUC (sum of the individual vasoconstriction scores through 36 hours)” value ([1]; 0.5 mM) was 0 and the “AUC (sum of the individual vasoconstriction scores through 36 hours)” value ([1]; 2.5 mM) was 0. The “AUC (sum of the individual vasoconstriction scores through 36 hours)” value ([1]; 5 mM) was 0, the “AUC (sum of the individual vasoconstriction scores through 36 hours)” value ([1]; 25 mM) was 0 and the “AUC (sum of the individual vasoconstriction scores through 36 hours)” value ([1]; 50 mM) was 0. For the same compound, the vasoconstriction activity [1] was “neither Δ^1-cortienic acid nor Δ^1-cortienic acid methyl ester had any vasoconstriction activity”, the “effect on the vasoconstriction activity of BEM-17V” value [2] was “no activity-increasing effect” and the “effect on the vasoconstriction activity of LE” value [2] was “increased the vasoconstriction activity of LE”. For the same compound, the “synergism with LE” value [2] was “synergistic results”.
In the case of `CCOC(=O)OC1(C(=O)O)CCC2C3CCC4=CC(=O)C=CC4(C)C3C(O)CC21C` (stereo not drawn) [the corresponding 17α-ethyl carbonate, 17α-ethoxycarbonyloxy-11β-hydroxyandrost-1,4-dien-3-one-17β-carboxylic acid], the “intrinsic activity in receptor binding studies” value (“intrinsic activity” for short) (receptor) is listed as “inactive”.
In the case of `CC12C=CC(=O)C=C1CCC1C2C(O)CC2(C)C1CC[C@]2(O)C(=O)O` (stereo partly drawn) [Δ^1-Cortienic Acid, 11β,17α-dihydroxyandrosta-1,4-dien-3-one-17β-carboxylic acid], the “intrinsic activity” value (receptor) is given as “inactive”, the “effect on the vasoconstrictor activity of loteprednol etabonate” value [1] is given as “significantly enhanced” and the “AUC (sum of the individual vasoconstriction scores through 36 hours)” value ([1]; 0.5 mM) is given as 0. The “AUC (sum of the individual vasoconstriction scores through 36 hours)” value ([1]; 2.5 mM) was 0, the “AUC (sum of the individual vasoconstriction scores through 36 hours)” value ([1]; 5 mM) was 0 and the “AUC (sum of the individual vasoconstriction scores through 36 hours)” value ([1]; 25 mM) was 0. For the same compound, the “AUC (sum of the individual vasoconstriction scores through 36 hours)” value ([1]; 50 mM) was 0, the vasoconstriction activity [1] was “neither Δ^1-cortienic acid nor Δ^1-cortienic acid methyl ester had any vasoconstriction activity” and the “effect on the vasoconstriction activity of BEM-17V” value [2] was “no activity-increasing effect”. For the same compound, the “effect on the vasoconstriction activity of LE” value [2] was “increased the vasoconstriction activity of LE” and the “synergism with LE” value [2] was “synergistic results”.
With `CCOC(=O)O[C@]1(C(=O)OCCl)CC[C@H]2[C@@H]3CCC4=CC(=O)C=C[C@]4(C)[C@H]3[C@@H](O)C[C@@]21C` [Loteprednol Etabonate, chloromethyl 17α-ethoxycarbonyloxy-11β-hydroxyandrosta-1,4-dien-3-one-17β-carboxylate, reference compound] the “AUC (sum of the individual vasoconstriction scores through 36 hours)” value ([1]; 0.1 mM, 20 μL on disc, 4 h application, 8 forearms) was 9, the “AUC (sum of the individual vasoconstriction scores through 36 hours)” value ([1]; 0.5 mM) was 39 and the “AUC (sum of the individual vasoconstriction scores through 36 hours)” value ([1]; 1 mM) was 90. The “AUC (sum of the individual vasoconstriction scores through 36 hours)” value ([1]; 5 mM) was 117, the “AUC (sum of the individual vasoconstriction scores through 36 hours)” value ([1]; 10 mM) was 122 and the vasoconstriction activity [1] was “significant activity”. For the same compound, the “AUC (sum of the individual vasoconstriction scores through 24 hours)” value [2, 3] was 99 and the “AUC (sum of the individual vasoconstriction scores through 24 hours)” value [2, 4] was 114.
For “chloromethyl 17α-ethoxycarbonyloxy-11β-hydroxyandrosta-1,4-dien-3-one-17β-carboxylate [Loteprednol Etabonate, reference compound]”, the “intrinsic activity” value (receptor) is listed as “intrinsically active”.
For “betamethasone 17-valerate [Betamethasone Valerate, reference compound]”, the “AUC (sum of the individual vasoconstriction scores through 24 hours)” value [2, 3] was 107 and the “AUC (sum of the individual vasoconstriction scores through 24 hours)” value [2, 4] was 112.
